Test: log Pow: distribution coefficient between 1-octanol and water
Conditions: 1-octanol/water
Excerpt: Log Pow*=log Pow*−x*P′(x)/log Pow Formula 2: • where log Pow is the decimal logarithm of the distribution coefficient of a substance between 1-octanol and water, • x is the resulting solvent proportion based on the total volume proportion, normalized as 1.0, and • P′(x) is the polarity parameter for the corresponding solvent for the solvent proportion x.

Molecule	log Pow
CC(=O)/C=C/C1C(C)=CCCC1(C)C (stereo not drawn) [alpha-ionone]	3.86
C/C=C/C(=O)C1=C(C)C=CCC1(C)C [beta-damascenone]	4.40
CC(=O)/C=C/C1=C(C)CCCC1(C)C [beta-ionone]	3.85
CCCCCC1CCCC(=O)O1 (centres unmarked) [delta decalactone]	2.42
CCCCCCC1CCC(=O)O1 (centres unmarked) [gamma-decalactone]	2.38
CC1=CCC(C(C)(C)S)CC1 (centres unmarked) [p-menthenethiol-1,8]	4.04
Ethyldimethylpyrazine	1.60

Test: log Pow* calculated by Formula 2 from log Pow and the polarity parameter P′(x) of the ethanol/water mixture
Conditions: solvent ethanol, proportion 2%

Molecule	log Pow* (P′ 2%)
CC(=O)/C=C/C1C(C)=CCCC1(C)C (stereo not drawn) [alpha-ionone]	3.81
C/C=C/C(=O)C1=C(C)C=CCC1(C)C [beta-damascenone]	4.35
CC(=O)/C=C/C1=C(C)CCCC1(C)C [beta-ionone]	3.80
CCCCCC1CCCC(=O)O1 (centres unmarked) [delta decalactone]	2.34
CCCCCCC1CCC(=O)O1 (centres unmarked) [gamma-decalactone]	2.30
CC1=CCC(C(C)(C)S)CC1 (centres unmarked) [p-menthenethiol-1,8]	3.99
Ethyldimethylpyrazine	1.48

Same assay, conditions: solvent ethanol, proportion 4%

Molecule	log Pow* (P′ 4%)
CC(=O)/C=C/C1C(C)=CCCC1(C)C (stereo not drawn) [alpha-ionone]	3.76
C/C=C/C(=O)C1=C(C)C=CCC1(C)C [beta-damascenone]	4.31
CC(=O)/C=C/C1=C(C)CCCC1(C)C [beta-ionone]	3.75
CCCCCC1CCCC(=O)O1 (centres unmarked) [delta decalactone]	2.26
CCCCCCC1CCC(=O)O1 (centres unmarked) [gamma-decalactone]	2.22
CC1=CCC(C(C)(C)S)CC1 (centres unmarked) [p-menthenethiol-1,8]	3.94
Ethyldimethylpyrazine	1.36

Same assay, conditions: solvent ethanol, proportion 6%

Molecule	log Pow* (P′ 6%)
CC(=O)/C=C/C1C(C)=CCCC1(C)C (stereo not drawn) [alpha-ionone]	3.71
C/C=C/C(=O)C1=C(C)C=CCC1(C)C [beta-damascenone]	4.27
CC(=O)/C=C/C1=C(C)CCCC1(C)C [beta-ionone]	3.70
CCCCCC1CCCC(=O)O1 (centres unmarked) [delta decalactone]	2.19
CCCCCCC1CCC(=O)O1 (centres unmarked) [gamma-decalactone]	2.14
CC1=CCC(C(C)(C)S)CC1 (centres unmarked) [p-menthenethiol-1,8]	3.90
Ethyldimethylpyrazine	1.25

Same assay, conditions: solvent ethanol, proportion 8%

Molecule	log Pow* (P′ 8%)
CC(=O)/C=C/C1C(C)=CCCC1(C)C (stereo not drawn) [alpha-ionone]	3.67
C/C=C/C(=O)C1=C(C)C=CCC1(C)C [beta-damascenone]	4.23
CC(=O)/C=C/C1=C(C)CCCC1(C)C [beta-ionone]	3.66
CCCCCC1CCCC(=O)O1 (centres unmarked) [delta decalactone]	2.12
CCCCCCC1CCC(=O)O1 (centres unmarked) [gamma-decalactone]	2.07
CC1=CCC(C(C)(C)S)CC1 (centres unmarked) [p-menthenethiol-1,8]	3.86
Ethyldimethylpyrazine	1.14

Same assay, conditions: solvent ethanol, proportion 10%

Molecule	log Pow* (P′ 10%)
CC(=O)/C=C/C1C(C)=CCCC1(C)C (stereo not drawn) [alpha-ionone]	3.63
C/C=C/C(=O)C1=C(C)C=CCC1(C)C [beta-damascenone]	4.20
CC(=O)/C=C/C1=C(C)CCCC1(C)C [beta-ionone]	3.62
CCCCCC1CCCC(=O)O1 (centres unmarked) [delta decalactone]	2.05
CCCCCCC1CCC(=O)O1 (centres unmarked) [gamma-decalactone]	2.00
CC1=CCC(C(C)(C)S)CC1 (centres unmarked) [p-menthenethiol-1,8]	3.82
Ethyldimethylpyrazine	1.04

Same assay, conditions: solvent ethanol, proportion 30%

Molecule	log Pow* (P′ 30%)
CC(=O)/C=C/C1C(C)=CCCC1(C)C (stereo not drawn) [alpha-ionone]	3.30
C/C=C/C(=O)C1=C(C)C=CCC1(C)C [beta-damascenone]	3.91
CC(=O)/C=C/C1=C(C)CCCC1(C)C [beta-ionone]	3.29
CCCCCC1CCCC(=O)O1 (centres unmarked) [delta decalactone]	1.52
CCCCCCC1CCC(=O)O1 (centres unmarked) [gamma-decalactone]	1.47
CC1=CCC(C(C)(C)S)CC1 (centres unmarked) [p-menthenethiol-1,8]	3.50
Ethyldimethylpyrazine	0.25

Same assay, conditions: solvent ethanol, proportion 40%

Molecule	log Pow* (P′ 40%)
CC(=O)/C=C/C1C(C)=CCCC1(C)C (stereo not drawn) [alpha-ionone]	3.18
C/C=C/C(=O)C1=C(C)C=CCC1(C)C [beta-damascenone]	3.80
CC(=O)/C=C/C1=C(C)CCCC1(C)C [beta-ionone]	3.17
CCCCCC1CCCC(=O)O1 (centres unmarked) [delta decalactone]	1.33
CCCCCCC1CCC(=O)O1 (centres unmarked) [gamma-decalactone]	1.27
CC1=CCC(C(C)(C)S)CC1 (centres unmarked) [p-menthenethiol-1,8]	3.39
Ethyldimethylpyrazine	−0.05

Same assay, conditions: solvent ethanol, proportion 50%

Molecule	log Pow* (P′ 50%)
CC(=O)/C=C/C1C(C)=CCCC1(C)C (stereo not drawn) [alpha-ionone]	3.08
C/C=C/C(=O)C1=C(C)C=CCC1(C)C [beta-damascenone]	3.71
CC(=O)/C=C/C1=C(C)CCCC1(C)C [beta-ionone]	3.06
CCCCCC1CCCC(=O)O1 (centres unmarked) [delta decalactone]	1.17
CCCCCCC1CCC(=O)O1 (centres unmarked) [gamma-decalactone]	1.11
CC1=CCC(C(C)(C)S)CC1 (centres unmarked) [p-menthenethiol-1,8]	3.29
Ethyldimethylpyrazine	−0.29

Same assay, conditions: solvent ethanol, proportion 60%

Molecule	log Pow* (P′ 60%)
CC(=O)/C=C/C1C(C)=CCCC1(C)C (stereo not drawn) [alpha-ionone]	2.99
C/C=C/C(=O)C1=C(C)C=CCC1(C)C [beta-damascenone]	3.64
CC(=O)/C=C/C1=C(C)CCCC1(C)C [beta-ionone]	2.98
CCCCCC1CCCC(=O)O1 (centres unmarked) [delta decalactone]	1.03
CCCCCCC1CCC(=O)O1 (centres unmarked) [gamma-decalactone]	0.97
CC1=CCC(C(C)(C)S)CC1 (centres unmarked) [p-menthenethiol-1,8]	3.21
Ethyldimethylpyrazine	−0.50

Same assay, conditions: solvent ethanol, proportion 70%

Molecule	log Pow* (P′ 70%)
CC(=O)/C=C/C1C(C)=CCCC1(C)C (stereo not drawn) [alpha-ionone]	2.92
C/C=C/C(=O)C1=C(C)C=CCC1(C)C [beta-damascenone]	3.57
CC(=O)/C=C/C1=C(C)CCCC1(C)C [beta-ionone]	2.90
CCCCCC1CCCC(=O)O1 (centres unmarked) [delta decalactone]	0.92
CCCCCCC1CCC(=O)O1 (centres unmarked) [gamma-decalactone]	0.85
CC1=CCC(C(C)(C)S)CC1 (centres unmarked) [p-menthenethiol-1,8]	3.14
Ethyldimethylpyrazine	−0.68

Same assay, conditions: solvent ethanol, proportion 80%

Molecule	log Pow* (P′ 80%)
CC(=O)/C=C/C1C(C)=CCCC1(C)C (stereo not drawn) [alpha-ionone]	2.85
C/C=C/C(=O)C1=C(C)C=CCC1(C)C [beta-damascenone]	3.52
CC(=O)/C=C/C1=C(C)CCCC1(C)C [beta-ionone]	2.84
CCCCCC1CCCC(=O)O1 (centres unmarked) [delta decalactone]	0.81
CCCCCCC1CCC(=O)O1 (centres unmarked) [gamma-decalactone]	0.75
CC1=CCC(C(C)(C)S)CC1 (centres unmarked) [p-menthenethiol-1,8]	3.08
Ethyldimethylpyrazine	−0.83

Same assay, conditions: solvent ethanol, proportion 90%

Molecule	log Pow* (P′ 90%)
CC(=O)/C=C/C1C(C)=CCCC1(C)C (stereo not drawn) [alpha-ionone]	2.80
C/C=C/C(=O)C1=C(C)C=CCC1(C)C [beta-damascenone]	3.47
CC(=O)/C=C/C1=C(C)CCCC1(C)C [beta-ionone]	2.78
CCCCCC1CCCC(=O)O1 (centres unmarked) [delta decalactone]	0.72
CCCCCCC1CCC(=O)O1 (centres unmarked) [gamma-decalactone]	0.65
CC1=CCC(C(C)(C)S)CC1 (centres unmarked) [p-menthenethiol-1,8]	3.02
Ethyldimethylpyrazine	−0.97

Same assay, conditions: solvent ethanol, proportion 100%

Molecule	log Pow* (P′ 100%)
CC(=O)/C=C/C1C(C)=CCCC1(C)C (stereo not drawn) [alpha-ionone]	2.75
C/C=C/C(=O)C1=C(C)C=CCC1(C)C [beta-damascenone]	3.42
CC(=O)/C=C/C1=C(C)CCCC1(C)C [beta-ionone]	2.73
CCCCCC1CCCC(=O)O1 (centres unmarked) [delta decalactone]	0.64
CCCCCCC1CCC(=O)O1 (centres unmarked) [gamma-decalactone]	0.57
CC1=CCC(C(C)(C)S)CC1 (centres unmarked) [p-menthenethiol-1,8]	2.98
Ethyldimethylpyrazine	−1.09

Source: US8394442B2, “Process for the preparation of a flavoring concentrate, and a flavoring concentrate” (SYMRISE AG, priority 2007, dated 2013)
